Measured values from patent publication US10471024B2, “Increased effectiveness of allylamine drug compounds for topical treatment of fungal infections of the skin and skin appendages” (BIOPHILE CORPORATION, LTD., priority 2007, dated 2019).
Structures can show the parent of a compound that is named as a salt.

Experiments:
[1] = zeta potential of terbinafine hydrochloride solution; format: physicochemical; details: 0.02 g/ml solution
Source text: Prototype measurements of zeta potential of the 0.02 g/ml terbinafine hydrochloride solution and the result is positive at pH of below 5.11. However, there are other anions in the solution, e.g., chloride ion and hydroxide ion (sodium hydroxide was used to adjust the solution pH) that make negative values of zeta potential. [table]

[2] = 0.5% in methanol/water (4:6), 25 degrees Celsius; cited from earlier work
[3] = theoretical fraction of positively charged terbinafine from pKa; format: physicochemical
Source text: The positive charge can be determined by examining the pKa of the active ingredient. […] At pH<pKa, the positively charged terbinafine is more than 50%. When pH>pKa the positively charged terbinafine is less than 50%.

SMILES	Zeta Potential ([1]; pH 3.68)	Zeta Potential ([1]; pH 5.11)	Zeta Potential ([1]; pH 7.07 (adjusted with sodium hydroxide))	Zeta Potential ([1]; pH 8.73 (adjusted with sodium hydroxide))	pH of a solution [2]	positively charged terbinafine ([3]; pH 5.10)	positively charged terbinafine molecules ([3]; pH 7.10)	positively charged terbinafine ([3]; pH 9.10)
CN(C/C=C/C#CC(C)(C)C)Cc1cccc2ccccc12 [Terbinafine hydrochloride]	+12.1 mV	+31.2 mV	−34.0 mV	−58.8 mV	approximately 4.7			
CN(C/C=C/C#CC(C)(C)C)Cc1cccc2ccccc12 [Terbinafine]						about 99%	50%	about 1%
